Molecules are shown by their SMILES.

The values that follow come from patent US12247015B2, “3-amino-4H-benzo[e][1,2,4]thiadiazine 1,1-dioxide derivatives as inhibitors of MRGX2” (Solent Therapeutics, LLC, priority 2019, dated 2025).

Sequence of hMRGX2 (CHO-K1 cells overexpressing MRGX2) (Q96LB1 whole entry): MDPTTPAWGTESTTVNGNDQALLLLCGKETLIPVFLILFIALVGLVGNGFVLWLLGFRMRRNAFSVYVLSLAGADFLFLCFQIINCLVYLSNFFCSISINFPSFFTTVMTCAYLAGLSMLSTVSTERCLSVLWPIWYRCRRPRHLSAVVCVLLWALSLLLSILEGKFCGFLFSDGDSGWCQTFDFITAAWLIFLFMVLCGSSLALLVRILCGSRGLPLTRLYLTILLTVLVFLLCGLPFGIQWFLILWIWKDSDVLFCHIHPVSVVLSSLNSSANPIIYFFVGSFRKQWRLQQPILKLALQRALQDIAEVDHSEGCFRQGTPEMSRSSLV

This experiment has as its target hMRGX2 (CHO-K1 cells overexpressing MRGX2) (Homo sapiens (Human), UniProt Q96LB1). In words: In vitro inhibition (EC50) of intracellular calcium flux, FLIPR Tetra, substance P stimulation. The class given is cell-based. To be noted: stimulated with MRGX2 ligand substance P, FLIPR Calcium 5, read-out: hMRGX2 Cellular Potency (pEC50) (converted). Summed up:
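CHO-K1 cells overexpressing human MRGX2, loaded with Calcium 5 dye for 30 min at 37 °C, then given compound (11-point, top 10 μM).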
Take `COCCNC1=NS(=O)(=O)c2cccc(-c3cc(C(F)(F)F)ccc3Cl)c2N1` [Example 134, 5-(2-chloro-5-(trifluoromethyl)phenyl)-3-((2-methoxyethyl)amino)-4H-benzo[e][1,2,4]thiadiazine 1,1-dioxide]: the EC50 was 0.723 µM.
The value for `COCCNC1=NS(=O)(=O)c2cccc(-c3cccc(Cl)c3F)c2N1` [Example 135, 5-(3-chloro-2-fluorophenyl)-3-((2-methoxyethyl)amino)-4H-benzo[e][1,2,4]thiadiazine 1,1-dioxide] was 0.841 µM; that for `CNC1=NS(=O)(=O)c2ccc(F)c(-c3ccccc3Cl)c2N1` [Example 138, 5-(2-chlorophenyl)-6-fluoro-3-(methylamino)-4H-benzo[e][1,2,4]thiadiazine 1,1-dioxide] was 0.19 µM.
The same measure for `O=S1(=O)N=C(NCc2ccccn2)Nc2c(-c3cc(F)ccc3F)cccc21` [Example 139, 5-(2,5-difluorophenyl)-3-((pyridin-2-ylmethyl)amino)-4H-benzo[e][1,2,4]thiadiazine 1,1-dioxide]: 0.246 µM; for `O=S1(=O)N=C(NCC2CC2)Nc2c(-c3cc(F)ccc3F)cccc21` [Example 140, 3-((cyclopropylmethyl)amino)-5-(2,5-difluorophenyl)-4H-benzo[e][1,2,4]thiadiazine 1,1-dioxide]: 0.692 µM; for `COCCNC1=NS(=O)(=O)c2cccc(-c3cc(F)ccc3F)c2N1` [Example 141, 5-(2,5-difluorophenyl)-3-((2-methoxyethyl)amino)-4H-benzo[e][1,2,4]thiadiazine 1,1-dioxide]: 0.366 µM.
The same measure for `COC(C)CNC1=NS(=O)(=O)c2cccc(-c3cc(F)ccc3F)c2N1` (stereo not drawn) [Example 142, 5-(2,5-difluorophenyl)-3-((2-methoxypropyl)amino)-4H-benzo[e][1,2,4]thiadiazine 1,1-dioxide]: 0.244 µM; for `CCNC1=NS(=O)(=O)c2cccc(-c3cc(F)ccc3F)c2N1` [Example 143, 5-(2,5-difluorophenyl)-3-(ethylamino)-4H-benzo[e][1,2,4]thiadiazine 1,1-dioxide]: 0.443 µM.
In the case of `COCCNC1=NS(=O)(=O)c2cccc(-c3cc(F)ccc3Cl)c2N1` [Example 144, 5-(2-chloro-5-fluorophenyl)-3-((2-methoxyethyl)amino)-4H-benzo[e][1,2,4]thiadiazine 1,1-dioxide], the EC50 was 0.216 µM.
For the compound `COC(C)CNC1=NS(=O)(=O)c2cccc(-c3ccccc3C#N)c2N1` (stereo not drawn) [Example 145, 2-(3-((2-methoxypropyl)amino)-1,1-dioxido-4H-benzo[e][1,2,4]thiadiazin-5-yl)benzonitrile], the EC50 was 0.141 µM.
The same measure for `N#Cc1ccccc1-c1cccc2c1NC(NCC1CCC1)=NS2(=O)=O` [Example 146, 2-(3-((cyclobutylmethyl)amino)-1,1-dioxido-4H-benzo[e][1,2,4]thiadiazin-5-yl)benzonitrile]: 0.162 µM; for `O=S1(=O)N=C(NCc2cccc(F)n2)Nc2c(-c3cccc(F)c3Cl)cccc21` [Example 148, 5-(2-chloro-3-fluorophenyl)-3-(((6-fluoropyridin-2-yl)methyl)amino)-4H-benzo[e][1,2,4]thiadiazine 1,1-dioxide]: 0.017 µM.
The value for `N#Cc1c(F)cccc1-c1cccc2c1NC(NCCF)=NS2(=O)=O` [Example 149, 2-fluoro-6-(3-((2-fluoroethyl)amino)-1,1-dioxido-4H-benzo[e][1,2,4]thiadiazin-5-yl)benzonitrile] was 0.32 µM.
The value for `COC(C)CNC1=NS(=O)(=O)c2cccc(-c3cccc(F)c3C#N)c2N1` (stereo not drawn) [Example 150, 2-fluoro-6-(3-((2-methoxypropyl)amino)-1,1-dioxido-4H-benzo[e][1,2,4]thiadiazin-5-yl)benzonitrile] was 0.416 µM; that for `COCCCNC1=NS(=O)(=O)c2cccc(-c3cccc(F)c3Cl)c2N1` [Example 151, 5-(2-chloro-3-fluorophenyl)-3-((3-methoxypropyl)amino)-4H-benzo[e][1,2,4]thiadiazine 1,1-dioxide] was 0.562 µM.
